Laboratory results taken from patent US5760022A, “Pharmaceutical composition with improved bioavailability of inositol phosphate” (Perstorp AB, priority 1994, dated 1998).
Where a name gives a salt, the structure may show the parent alone.

Experiment: bioavailability of IP3 in pigs: concentration of IP3 in blood samples and AUC after intravenous injection, intraduodenal/oral formulation and oral sodium salt
Conditions: pig, in vivo
Method: The blood samples were assayed for the content of IP3 and these measurements were used for the calculation of the reference data as 100% of the substance is introduced into the blood stream after an intravenous injection. Another five pigs were given the composition comprising the mixture of 2,3-dihydroxypropyl octanoate and IP3 as an intraduodenal dosing. The animals were treated with Atropin and anaesthetized with Hypnodil®/Sedaperone® whereafter a laparotomy was carried out. Blood samples were collected at the time intervals mentioned above and the concentration of IP3 was determined in each sample. By calculating the area under the curve (AUC) from a graph where the concentration versus time is shown and comparing the obtained value with a similar calculation from the data after intravenous injection of the substance the bioavailability for this specific formulation is obtained.
Blood samples were collected at the same time intervals as above and the concentration of IP3 was determined. Following a similar procedure the AUC was determined.
Blood samples were collected and the concentration of IP3 were determined.

Normalized AUC (%): 3%
Normalized AUC (%) (iv): 100%
concentration at 0.25 h (iv): 53700 nM
concentration at 0.5 h (iv): 40000 nM
concentration at 1 h (iv): 21600 nM
concentration at 1.5 h (iv): 12100 nM
concentration at 4 h (iv): 2600 nM
concentration at 8 h (iv): 600 nM
conc IP3 (iv, 0 min): 0 nM
concentration at 0.5 h (po): 600 nM
concentration at 1.5 h (po): 500 nM
concentration at 2 h (po): 600 nM
concentration at 4 h (po): 400 nM
concentration at 6 h (po): 400 nM
conc IP3 (po, 0 min): 0 nM
conc IP3 (po, 480 min): 0 nM
Compound: O=P(O)(O)O[C@@H]1[C@H](OP(=O)(O)O)[C@H](O)[C@@H](O)[C@H](O)[C@H]1OP(=O)(O)O [sodium salt of IP3, D-myo-inositol-1,2,6-trisphosphate]
